Measurements from the NIST ThermoML archive (doi:10.1016/j.fluid.2006.02.022).
Values joined by “and” are separate entries in the source; they are usually repeats but may differ in a detail not shown here. Identical values can stand only once. Numbers after ± are expanded uncertainties.

Assay: activity coefficient (dimensionless); of the first substance listed, at infinite dilution; xn = mol fraction of the nth substance listed
Conditions: 101 kPa, Liquid, Chromatography, x1 = 0

| activity coefficient (288.15 K) | activity coefficient (298.15 K) | activity coefficient (308.15 K) | activity coefficient (318.15 K) | activity coefficient (333.15 K) | SMILES |
| --- | --- | --- | --- | --- | --- |
| 1350 ± 100 | 1990 ± 140 | 2530 ± 190 | 3320 ± 350 | – | CCOC(C)(C)CC [1,1-dimethylpropyl ethyl ether] + O |
| 6030 ± 490 | 6040 ± 530 | 5830 ± 570 | 5340 ± 620 | 4140 ± 620 | CCCCS [1-butanethiol] + O |
| 325 ± 22 | 514 ± 35 | 659 ± 46 | 873 ± 82 | – | CCOC(C)(C)C [2-ethoxy-2-methylpropane] + O |
| 390 ± 39 | 529 ± 44 | 725 ± 55 | 1070 ± 87 | – | CCC(C)(C)OC [2-methoxy-2-methylbutane] + O |
| 127 ± 13 | 139 ± 11 | 180 ± 14 | 234 ± 18 | – | COC(C)(C)C [2-methoxy-2-methylpropane] + O |
| 1120 ± 90 | 1140 ± 100 | 1190 ± 120 | 1130 ± 130 | – | CC(C)S [2-propanethiol] + O |
| 111000 ± 9700 | 143000 ± 16000 | 149000 ± 23000 | 126000 ± 27000 | 76900 ± 29000 | CCOC(C)(C)CC(C)(C)C [ethyl 1,1,3,3-tetramethylbutyl ether] + O |
| – | – | – | 47100 and 126000 | 35500 and 76900 | COC(C)(C)CC(C)(C)C [methyl 1,1,3,3-tetramethylbutyl ether] + O |
| 1260 ± 100 | 1270 ± 96 | 1310 ± 100 | 1290 ± 110 | 1100 ± 100 | c1ccsc1 [thiophene] + O |

| SMILES | activity coefficient (288.15 K) | activity coefficient (298.15 K) | activity coefficient (308.15 K) | activity coefficient (318.15 K) | activity coefficient (333.15 K) |
| --- | --- | --- | --- | --- | --- |
| CCCS [1-propanethiol] + O | 1420 ± 110 | 1500 ± 120 | 1460 ± 130 | 1450 ± 150 | 1310 ± 160 |
| Cc1ccccc1 [toluene] + O | 8980 ± 950 | 8950 ± 950 | 8780 ± 930 | 8290 ± 880 | – |
